Test results: US20100068204A1, “4-ARYLOXYQUINOLIN-2(1H)-ONES AS MTOR KINASE AND PI3 KINASE INHIBITORS, FOR USE AS ANTI-CANCER AGENTS” (Wyeth, priority 2008, published 2010)

Legend:
[1] = molecular target: human TOR (FLAG-TOR) (Homo sapiens, UniProt P42345); experiment: mTOR enzyme assay (DELFIA format, purified enzyme); format: biochemical; conditions: 800 ng/ml FLAG-TOR, 100 μM ATP, 1.25 μM His6-S6K; read-out: mTOR Kinase IC50
[2] = molecular target: PI3Kα (Homo sapiens, UniProt P42336); experiment: PI3Kα fluorescence polarization assay; format: biochemical; conditions: 20 μM PIP2, 25 μM ATP
PI3Kα, sequence (P42336 whole entry, species assumed): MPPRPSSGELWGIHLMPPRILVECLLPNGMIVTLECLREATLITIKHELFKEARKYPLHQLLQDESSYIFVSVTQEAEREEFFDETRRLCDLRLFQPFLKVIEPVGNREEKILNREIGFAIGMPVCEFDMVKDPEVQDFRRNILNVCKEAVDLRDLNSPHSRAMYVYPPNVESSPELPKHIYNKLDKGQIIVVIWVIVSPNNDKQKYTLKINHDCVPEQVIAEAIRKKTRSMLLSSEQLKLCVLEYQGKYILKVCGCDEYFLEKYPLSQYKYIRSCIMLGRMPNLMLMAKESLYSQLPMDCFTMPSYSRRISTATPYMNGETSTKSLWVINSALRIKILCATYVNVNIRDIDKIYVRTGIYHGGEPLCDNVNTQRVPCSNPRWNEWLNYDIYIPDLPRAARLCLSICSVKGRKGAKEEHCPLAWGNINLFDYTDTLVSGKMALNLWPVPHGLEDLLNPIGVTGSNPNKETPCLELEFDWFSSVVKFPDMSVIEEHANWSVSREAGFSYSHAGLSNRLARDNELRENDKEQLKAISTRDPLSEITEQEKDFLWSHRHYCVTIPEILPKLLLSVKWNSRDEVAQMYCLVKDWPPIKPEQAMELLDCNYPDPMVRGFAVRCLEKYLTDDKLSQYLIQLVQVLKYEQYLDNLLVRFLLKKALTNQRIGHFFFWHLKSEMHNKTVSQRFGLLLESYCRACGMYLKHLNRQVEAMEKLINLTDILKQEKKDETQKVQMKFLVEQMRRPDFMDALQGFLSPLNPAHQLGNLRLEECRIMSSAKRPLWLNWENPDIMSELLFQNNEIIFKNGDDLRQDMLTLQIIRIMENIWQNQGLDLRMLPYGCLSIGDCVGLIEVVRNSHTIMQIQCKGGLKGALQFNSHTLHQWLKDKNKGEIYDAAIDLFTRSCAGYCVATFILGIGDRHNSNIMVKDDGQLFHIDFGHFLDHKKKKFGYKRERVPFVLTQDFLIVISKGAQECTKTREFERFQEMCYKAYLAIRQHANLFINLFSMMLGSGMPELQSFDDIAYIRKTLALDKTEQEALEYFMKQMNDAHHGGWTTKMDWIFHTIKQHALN
PI3Kα, sequence (P27986 whole entry partner, species assumed): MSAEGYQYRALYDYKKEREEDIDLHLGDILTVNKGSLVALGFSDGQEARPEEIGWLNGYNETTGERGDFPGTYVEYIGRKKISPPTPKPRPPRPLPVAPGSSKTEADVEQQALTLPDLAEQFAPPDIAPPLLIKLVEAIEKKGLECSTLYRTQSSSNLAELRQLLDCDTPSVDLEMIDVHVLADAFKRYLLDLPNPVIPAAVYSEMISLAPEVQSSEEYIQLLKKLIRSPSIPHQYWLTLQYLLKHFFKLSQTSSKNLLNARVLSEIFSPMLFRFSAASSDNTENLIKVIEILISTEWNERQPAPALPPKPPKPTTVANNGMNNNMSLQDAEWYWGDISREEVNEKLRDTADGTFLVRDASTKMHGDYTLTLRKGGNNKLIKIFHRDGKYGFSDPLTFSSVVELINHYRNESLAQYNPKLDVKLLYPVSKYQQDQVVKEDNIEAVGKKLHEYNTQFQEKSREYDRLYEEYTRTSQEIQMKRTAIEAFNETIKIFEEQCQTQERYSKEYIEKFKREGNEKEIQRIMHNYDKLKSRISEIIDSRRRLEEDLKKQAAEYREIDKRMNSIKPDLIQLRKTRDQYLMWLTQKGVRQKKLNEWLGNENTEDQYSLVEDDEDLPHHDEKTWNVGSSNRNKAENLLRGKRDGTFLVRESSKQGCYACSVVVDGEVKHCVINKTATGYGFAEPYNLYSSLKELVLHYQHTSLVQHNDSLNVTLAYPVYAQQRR
Description: The reaction buffer was 20 mM HEPES pH7.5, 2 mM MgCl2, 0.05% CHAPS, and 0.01% βME (added fresh). The substrate solution was 40 μM PIP2 (diC8, Echelon, Salt Lake City Utah cat #P-4508, 1 mM in water) and 50 μM ATP in the reaction buffer. Nunc 384-well black polypropylene fluorescent plates were used for PI3K assays. The assay is run by putting 9.5 μl of freshly diluted enzyme in the reaction buffer per well, adding 0.5 μl of diluted drug or DMSO, and mixing. Then 10 μl of the substrate solution is added to each well to start the reaction. A final concentration of 20 μM PIP2 and 25 μM ATP in the reaction was used. Reactions were allowed to proceed for 30-60 minutes at room temperature. After 30-60 minutes, 20 μl of a solution of 10 nM TAMRA detector (Red detector probe-Echelon) and 2.5 uM of GST-murine GRP (1.5 mg/ml in 17% glycerol) was added per well to stop the reaction. The resulting solution was mixed well and allowed to stand for 90-110 minutes before reading plate. Assay Plates were read on Perkin-Elmer Envision plate readers with appropriate filters for Tamra [BODIPY-TMRI(1,3,4,5)P4]. Data obtained were used to calculate enzymatic activity and enzyme inhibition by inhibitor compounds. It is important to keep Red probe solutions dark. This procedure is adapted from Echelon Biosciences Inc procedure for their PI3-Kinase fluorescence polarization activity Assay kit Product number K-1100.

[3] = tested on: LNCap prostate tumor cells; experiment: In vitro cell growth assay (MTS), LNCap; format: cell-based, human; conditions: three days after drug treatment
Description: (§1) Cell lines used were human adenocarcinoma (LoVo), […], prostate (LNCap), breast (MDA468, MCF7), colon (HCT116), renal (HTB44 A498), and ovarian (OVCAR3) tumor cell lines. The tumor cells were plated in 96-well culture plates at approximately 3000 cells per well. One day following plating, various concentrations of inhibitors in DMSO were added to cells (final DMSO concentration in cell assays was 0.25%). Three days after drug treatment, viable cell densities were determined by cell mediated metabolic conversion of the dye MTS, a well-established indicator of cell proliferation in vitro. Cell growth assays were performed using kits purchased from Promega Corporation (Madison, Wis.), following the protocol provided by the vendor. Measuring absorbance at 490 nm generated MTS assay results. Compound effect on cell proliferation was assessed relative to untreated control cell growth.

[4] = tested on: MDA468 breast tumor cells; experiment: In vitro cell growth assay (MTS), MDA468; format: cell-based, human; conditions: three days after drug treatment
Description: as §1

| Structure (SMILES) | IC50 [1] | IC50 [2] | IC50 ([3]; Homo sapiens, LNCaP, 72 h) | IC50 ([4]; Homo sapiens, 72 h) | IC50 [3] | IC50 [4] |
| --- | --- | --- | --- | --- | --- | --- |
| O=c1cc(Oc2ccccc2)c2cc(-c3cn[nH]c3)ccc2[nH]1 | 19 µM | 0.375 µM | > 60 µM | > 60 µM | – | – |
| O=c1cc(Oc2cccc(C(F)(F)F)c2)c2ccccc2[nH]1 | 1.35 µM | 8.69 µM | > 60 µM | > 60 µM | – | – |
| O=c1cc(Oc2ccc(OC(F)(F)F)cc2)c2ccccc2[nH]1 | > 20 µM | > 10 µM | > 60 µM | > 60 µM | – | – |
| N#CCc1cccc(Oc2cc(=O)[nH]c3ccccc23)c1 | 0.3 µM | 5.8 µM | 4.2 µM | 22 µM | – | – |
| O=c1cc(Oc2ccccc2Br)c2ccccc2[nH]1 | 0.95 µM | 8 µM | 7 µM | 40 µM | – | – |
| O=c1cc(Oc2cccc(OC(F)(F)F)c2)c2ccccc2[nH]1 | 0.75 µM | 8 µM | 7 µM | 60 µM | – | – |
| O=c1cc(Oc2ccc(C(F)(F)F)cc2)c2ccccc2[nH]1 | > 20 µM | 2.31 µM | > 60 µM | > 60 µM | – | – |
| O=c1cc(Oc2cccc(-c3cccnc3)c2)c2ccccc2[nH]1 | 0.43 µM | 3.66 µM | 7 µM | 20 µM | – | – |
| Nc1cccc(Oc2cc(=O)[nH]c3ccccc23)c1 | 0.15 µM | 0.106 µM | 2.5 µM | 28 µM | – | – |
| O=c1cc(Oc2cccc(-c3ccoc3)c2)c2ccccc2[nH]1 | 0.35 µM | 4.32 µM | 6.2 µM | 0.3 µM | – | – |
| O=c1cc(Oc2cccc(-c3ccsc3)c2)c2ccccc2[nH]1 | 0.63 µM | 0.63 µM | 30 µM | 60 µM | – | – |
| Cn1cc(-c2ccc(Oc3cc(=O)[nH]c4ccccc34)cc2)cn1 | 1.98 µM | 2.28 µM | 1.3 µM | > 60 µM | – | – |
| O=c1cc(Oc2cccc(Br)c2)c2ccccc2[nH]1 | 0.11 µM | > 10 µM | 60 µM | > 60 µM | – | – |
| O=c1cc(Oc2cccc(-c3cn[nH]c3)c2)c2ccccc2[nH]1 | 0.3 µM | 3.9 µM | 8 µM | 2.9 µM | – | – |
| Cn1cc(-c2cccc(Oc3cc(=O)[nH]c4ccccc34)c2)cn1 | 0.18 µM | > 10 µM | > 60 µM | 60 µM | – | – |
| O=c1cc(Oc2cccc(-c3ccccc3)c2)c2ccccc2[nH]1 | 0.63 µM | > 10 µM | 17 µM | 60 µM | – | – |
| O=c1cc(Oc2cccc(NCc3ccccc3)c2)c2ccccc2[nH]1 | 0.14 µM | 3.78 µM | 6 µM | – | – | – |
| COC[C@@H]1CCCN1CCNc1ccc(-c2cccc(Oc3cc(=O)[nH]c4ccccc34)c2)cc1 | 0.13 µM | 11 µM | 5 µM | – | – | – |
| CN1CCC(N(C)c2cccc(-c3cccc(Oc4cc(=O)[nH]c5ccccc45)c3)c2)CC1 | 0.33 µM | 8.31 µM | 3 µM | – | – | – |
| CN(C)CCCN1CCN(c2cccc(Oc3cc(=O)[nH]c4ccccc34)c2)CC1 | 0.72 µM | – | 7 µM | 10.5 µM | – | – |
| CC(C)(C)CNc1ncccc1CNc1cccc(Oc2cc(=O)[nH]c3ccccc23)c1 | 0.16 µM | – | 4.2 µM | 10 µM | – | – |
| CC(C)(C)OC(=O)Nc1ccc(CNc2cccc(Oc3cc(=O)[nH]c4ccccc34)c2)cn1 | 0.42 µM | – | 12 µM | 60 µM | – | – |
| O=c1cc(Oc2cccc(NCc3ccc(F)nc3)c2)c2ccccc2[nH]1 [drawing 208] | – | 9.54 µM | – | – | 4 µM | 11 µM |
| O=c1cc(Oc2cccc(NCc3ccc(F)nc3)c2)c2ccccc2[nH]1 [drawing 218] | – | – | – | – | 13 µM | 50 µM |
| O=c1cc(Oc2cccc(OCc3ccccc3)c2)c2ccccc2[nH]1 [drawing 351] | – | 4.15 µM | > 60 µM | > 60 µM | – | – |
| CN1CCN(c2cccc(Oc3cc(=O)[nH]c4ccccc34)c2)CC1 [drawing 359] | 0.37 µM | 10.3 µM | 0.62 µM | – | – | – |
| O=c1cc(Oc2ccccn2)c2ccccc2[nH]1 [drawing 389] | 9.7 µM | 8.74 µM | > 60 µM | – | – | – |
